Measured values: PubChem BioAssay (NCI)
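GI50: concentration for 50% inhibition of growth. The concentration for full growth arrest is given as TGI.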

Legend:
Assay in all cases: NCI anticancer screen, dose series, 384-well format
[1] = tested on: SF-539 CNS
[2] = tested on: M14 melanoma
[3] = tested on: HS 578T breast
[4] = tested on: BT-549 breast
[5] = tested on: T-47D breast
[6] = tested on: SW-620 colon
[7] = tested on: HL-60(TB) leukemia
[8] = tested on: NCI-H23 lung
[9] = tested on: SF-295 CNS
[10] = tested on: HCT-15 colon
[11] = tested on: SNB-75 CNS
[12] = tested on: NCI-H522 lung
[13] = tested on: KM12 colon
[14] = tested on: CCRF-CEM leukemia
[15] = tested on: MALME-3M melanoma
[16] = tested on: CAKI-1 renal
[17] = tested on: 786-0 renal
[18] = tested on: A549 NSCLC
[19] = tested on: HCC-2998 colon
[20] = tested on: OVCAR-5 ovarian
[21] = tested on: ACHN renal
[22] = tested on: MCF7 breast
[23] = tested on: NCI/ADR-RES ovarian
[24] = tested on: MOLT-4 leukemia
[25] = tested on: COLO 205 colon
[26] = tested on: A498 renal
[27] = tested on: EKVX NSCLC
[28] = tested on: SF-268 CNS
[29] = tested on: SK-MEL-28 melanoma
[30] = tested on: PC-3 prostate
[31] = tested on: UO-31 renal
[32] = tested on: IGROV1 ovarian
[33] = tested on: MDA-MB-435 melanoma
[34] = tested on: MDA-MB-468 breast
[35] = tested on: OVCAR-3 ovarian
[36] = tested on: MDA-MB-231 breast
[37] = tested on: DU-145 prostate
[38] = tested on: SK-MEL-2 melanoma
[39] = tested on: NCI-H226 lung
[40] = tested on: UACC-257 melanoma
[41] = tested on: HOP-92 NSCLC
[42] = tested on: K-562 leukemia
[43] = tested on: U251 glioblastoma
[44] = tested on: HOP-62 NSCLC
[45] = tested on: HCT-116 colon
[46] = tested on: UACC-62 melanoma
[47] = tested on: LOX IMVI melanoma
[48] = tested on: SK-MEL-5 melanoma
[49] = tested on: SR leukemia
[50] = tested on: RPMI-8226 leukemia
[51] = tested on: SN12C renal
[52] = tested on: SNB-19 CNS
[53] = tested on: OVCAR-4 ovarian
[54] = tested on: RXF 393 renal
[55] = tested on: SK-OV-3 ovarian
[56] = tested on: NCI-H460 NSCLC
[57] = tested on: TK-10 renal
[58] = tested on: NCI-H322M lung

COc1ccc(C(=O)CC2(O)C(=O)Nc3c(Cl)ccc(Cl)c32)cc1 (stereo unspecified)
GI50 [1]: 1.68 µM
TGI [1]: 5.35 µM
GI50 [2]: 0.529 µM
TGI [2]: 2.57 µM
GI50 [3]: 1.09 µM
TGI [3]: 2.76 µM
GI50 [4]: 0.509 µM
TGI [4]: 10.9 µM
GI50 [5]: 9.17 µM
TGI [5]: 52 µM
GI50 [6]: 0.452 µM
TGI [6]: > 100 µM
GI50 [7]: 0.237 µM
TGI [7]: 0.474 µM
GI50 [8]: 1.97 µM
TGI [8]: 12.1 µM
GI50 [9]: 1.55 µM
TGI [9]: 8.41 µM
GI50 [10]: 0.369 µM
TGI [10]: 14.4 µM
GI50 [11]: 2.26 µM
TGI [11]: 15.8 µM
GI50 [12]: 0.264 µM
TGI [12]: 0.587 µM
GI50 [13]: 0.467 µM
TGI [13]: 25.6 µM
GI50 [14]: 0.656 µM
TGI [14]: 1.9 µM
GI50 [15]: 13.9 µM
TGI [15]: 45.4 µM
GI50 [16]: 0.679 µM
TGI [16]: > 100 µM
GI50 [17]: 3.61 µM
TGI [17]: 21.7 µM
GI50 [18]: 2.1 µM
TGI [18]: > 100 µM
GI50 [19]: 1.8 µM
TGI [19]: 36.2 µM
GI50 [20]: 9.83 µM
TGI [20]: > 100 µM
GI50 [21]: 7.9 µM
TGI [21]: > 100 µM
GI50 [22]: 1.07 µM
TGI [22]: 21 µM
GI50 [23]: 0.346 µM
TGI [23]: 1.36 µM
GI50 [24]: 0.216 µM
TGI [24]: 0.426 µM
GI50 [25]: 0.646 µM
TGI [25]: > 100 µM
GI50 [26]: 3.72 µM
TGI [26]: 46.7 µM
GI50 [27]: 3.81 µM
TGI [27]: 52 µM
GI50 [28]: 10.6 µM
TGI [28]: 31.3 µM
GI50 [29]: 15.9 µM
TGI [29]: > 100 µM
GI50 [30]: 2.27 µM
TGI [30]: > 100 µM
GI50 [31]: 8.45 µM
TGI [31]: > 100 µM
GI50 [32]: 2.78 µM
TGI [32]: > 100 µM
GI50 [33]: 0.207 µM
TGI [33]: 0.431 µM
GI50 [34]: 0.215 µM
TGI [34]: 0.571 µM
GI50 [35]: 0.382 µM
TGI [35]: 1.25 µM
GI50 [36]: 13.2 µM
TGI [36]: > 100 µM
GI50 [37]: 2.79 µM
TGI [37]: 12.1 µM
GI50 [38]: 0.864 µM
TGI [38]: 3.02 µM
GI50 [39]: 6.25 µM
TGI [39]: 50 µM
GI50 [40]: 6.69 µM
TGI [40]: 21.6 µM
GI50 [41]: 9.02 µM
TGI [41]: 54.5 µM
GI50 [42]: 0.354 µM
TGI [42]: 1.65 µM
GI50 [43]: 1.13 µM
TGI [43]: 12.5 µM
GI50 [44]: 1.26 µM
TGI [44]: 47.8 µM
GI50 [45]: 0.568 µM
TGI [45]: 32.1 µM
GI50 [46]: 0.38 µM
TGI [46]: 4.27 µM
GI50 [47]: 4.44 µM
TGI [47]: 21 µM
GI50 [48]: 0.663 µM
TGI [48]: 5.85 µM
GI50 [49]: 0.113 µM
TGI [49]: 0.256 µM
GI50 [50]: 1.17 µM
TGI [50]: 2.56 µM
GI50 [51]: 3.28 µM
TGI [51]: 20.8 µM
GI50 [52]: 2.32 µM
TGI [52]: 32.8 µM
GI50 [53]: 8.8 µM
TGI [53]: 85.6 µM
GI50 [54]: 0.96 µM
TGI [54]: 5.08 µM
GI50 [55]: 2.56 µM
TGI [55]: 95.6 µM
GI50 [56]: 0.477 µM
TGI [56]: 2.48 µM
GI50 [57]: 1.36 µM
TGI [57]: > 100 µM
GI50 [58]: 5.82 µM
TGI [58]: > 100 µM
